ChEMBL document CHEMBL1201862, “PubChem BioAssay data set” (2004)
Several values for one entry are separate records, joined by “and”; a condition that tells them apart may be missing. Equal entries are not always repeated.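 Five concentrations, 48 hours, 96-well plates. GI50 = concentration required for 50% inhibition of growth.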 Activity calls are given as the source filed them. Rule as the data show it: active = GI50 up to about 1.1 µM and inactive = higher.

How the values were obtained:
Test in all cases: NCI tumour cell line growth inhibition, 48 h
MDA-N = test system: MDA-N
KM12 = test system: KM12
786-0 = test system: 786-0
EKVX = test system: EKVX
CCRF-CEM = test system: CCRF-CEM
HCC 2998 = test system: HCC 2998
K562 = test system: K562
HCT-116 = test system: HCT-116
SK-MEL-5 = test system: SK-MEL-5
TK-10 = test system: TK-10
RXF 393 = test system: RXF 393
UO-31 = test system: UO-31
UACC-257 = test system: UACC-257
U-251 = test system: U-251
DU-145 = test system: DU-145
NCI-H460 = test system: NCI-H460
LOX IMVI = test system: LOX IMVI
SW-620 = test system: SW-620
MCF7 = test system: MCF7
NCI-H522 = test system: NCI-H522
Hs-578T = test system: Hs-578T
OVCAR-4 = test system: OVCAR-4
SR = test system: SR
NCI/ADR-RES = test system: NCI/ADR-RES
MDA-MB-435 = test system: MDA-MB-435
MOLT-4 = test system: MOLT-4
OVCAR-3 = test system: OVCAR-3
SK-MEL-28 = test system: SK-MEL-28
HOP-92 = test system: HOP-92
SF-539 = test system: SF-539
PC-3 = test system: PC-3
CAKI-1 = test system: CAKI-1
ACHN = test system: ACHN
MDA-MB-231 = test system: MDA-MB-231
HCT-15 = test system: HCT-15
HT-29 = test system: HT-29
OVCAR-8 = test system: OVCAR-8
SF-295 = test system: SF-295
T47D = test system: T47D
SF-268 = test system: SF-268
NCI-H226 = test system: NCI-H226
SK-OV-3 = test system: SK-OV-3
SK-MEL-2 = test system: SK-MEL-2
HOP-62 = test system: HOP-62
OVCAR-5 = test system: OVCAR-5
IGROV-1 = test system: IGROV-1
A498 = test system: A498
SN12C = test system: SN12C
Malme-3M = test system: Malme-3M
A549 = test system: A549
NCI-H23 = test system: NCI-H23
COLO 205 = test system: COLO 205
M14 = test system: M14
HL-60 = test system: HL-60
SNB-75 = test system: SNB-75
RPMI-8226 = test system: RPMI-8226
UACC-62 = test system: UACC-62
SNB-19 = test system: SNB-19

Measured: GI50

CN1CCN(Cn2nc(COc3ccc(Cl)cc3)n(/N=C/c3ccc(-c4ccc(Cl)cc4Cl)o3)c2=S)CC1
inactive: MDA-N 4.02 µM | KM12 3.18 µM | 786-0 5.12 µM | EKVX 14.5 µM | HCC 2998 3.18 µM | K562 15.2 µM | HCT-116 13.4 µM | SK-MEL-5 14.8 µM | TK-10 14.5 µM | RXF 393 2.33 µM | UO-31 17.6 µM | UACC-257 17.6 µM | U-251 10.9 µM | DU-145 11.9 µM | NCI-H460 17.8 µM | LOX IMVI 5.57 µM | SW-620 5.06 µM | MCF7 8.32 µM | NCI-H522 3.72 µM | Hs-578T 3.72 µM | OVCAR-4 3.05 µM | SR 2.63 µM | NCI/ADR-RES 20.5 µM | MDA-MB-435 2.55 µM | MOLT-4 16.7 µM | OVCAR-3 14.1 µM | SK-MEL-28 13.9 µM | HOP-92 8.47 µM | SF-539 26.4 µM | PC-3 11.2 µM | CAKI-1 14.2 µM | ACHN 19.7 µM | MDA-MB-231 7 µM | HT-29 3.7 µM | OVCAR-8 4.89 µM | SF-295 13.4 µM | T47D 6.64 µM | SF-268 3.95 µM | NCI-H226 19.6 µM | SK-OV-3 15.7 µM | SK-MEL-2 18.3 µM | HOP-62 5 µM | OVCAR-5 6.46 µM | IGROV-1 10.6 µM | A498 18.3 µM
18.6 µM: HCT-15
active: CCRF-CEM 0.247 µM

Clc1ccc(/C=N/Nc2nnc3c4ccccc4c4ncccc4c3n2)cc1
inactive: SN12C > 10 µM | MDA-N > 10 µM | KM12 > 10 µM | 786-0 > 10 µM | Malme-3M > 10 µM | EKVX > 10 µM | HCC 2998 > 10 µM | A549 > 10 µM | NCI-H23 > 10 µM | K562 > 10 µM | SK-MEL-5 > 10 µM | TK-10 > 10 µM | RXF 393 > 10 µM | COLO 205 > 10 µM | UACC-257 > 10 µM | M14 > 10 µM | DU-145 > 10 µM | HL-60 > 10 µM | SW-620 > 10 µM | MCF7 > 10 µM | SNB-75 > 10 µM | RPMI-8226 > 10 µM | SR > 10 µM | MOLT-4 > 10 µM | SK-MEL-28 > 10 µM | UACC-62 > 10 µM | PC-3 > 10 µM | CAKI-1 > 10 µM | MDA-MB-231 > 10 µM | HT-29 > 10 µM | OVCAR-8 > 10 µM | SF-295 > 10 µM | T47D > 10 µM | SF-268 > 10 µM | SK-OV-3 > 10 µM | HOP-62 > 10 µM | IGROV-1 > 10 µM
> 10 µM: HCT-15

CN1C(=O)NC(=O)/C(=C\Nc2ncccn2)C1=O
inactive: SN12C > 100 µM | MDA-N > 100 µM | KM12 > 100 µM | 786-0 > 100 µM | Malme-3M > 100 µM | EKVX > 100 µM | A549 > 100 µM | NCI-H23 > 100 µM | SNB-19 > 100 µM | HCT-116 > 100 µM | SK-MEL-5 > 100 µM | TK-10 > 100 µM | UO-31 > 100 µM | COLO 205 > 100 µM | UACC-257 > 100 µM | M14 > 100 µM | U-251 > 100 µM | DU-145 > 100 µM | HL-60 > 100 µM | NCI-H460 > 100 µM | LOX IMVI > 100 µM | SW-620 > 100 µM | MCF7 > 100 µM | NCI-H522 > 100 µM | SNB-75 > 100 µM | Hs-578T > 100 µM | OVCAR-4 > 100 µM | NCI/ADR-RES > 100 µM | MDA-MB-435 > 100 µM | MOLT-4 > 100 µM | OVCAR-3 > 100 µM | SK-MEL-28 > 100 µM | HOP-92 > 100 µM | SF-539 > 100 µM | UACC-62 > 100 µM | PC-3 > 100 µM | CAKI-1 > 100 µM | ACHN > 100 µM | MDA-MB-231 > 100 µM | HT-29 > 100 µM | OVCAR-8 > 100 µM | SF-295 > 100 µM | T47D > 100 µM | SF-268 > 100 µM | NCI-H226 > 100 µM | SK-OV-3 > 100 µM | SK-MEL-2 > 100 µM | HOP-62 > 100 µM | OVCAR-5 > 100 µM | IGROV-1 > 100 µM | A498 > 100 µM
> 100 µM: HCT-15

CCOC(=O)C(=O)/C(=C\NC(=S)Nc1ccccc1Cl)C(=O)OCC
inactive: SN12C > 100 µM | MDA-N > 100 µM | KM12 > 100 µM | 786-0 > 100 µM | Malme-3M > 100 µM | EKVX > 100 µM | CCRF-CEM > 100 µM | HCC 2998 > 100 µM | A549 > 100 µM | NCI-H23 > 100 µM | SNB-19 > 100 µM | K562 > 100 µM | HCT-116 > 100 µM | SK-MEL-5 > 100 µM | RXF 393 > 100 µM | UO-31 > 100 µM | COLO 205 > 100 µM | UACC-257 > 100 µM | M14 > 100 µM | U-251 > 100 µM | DU-145 > 100 µM | HL-60 > 100 µM | NCI-H460 > 100 µM | LOX IMVI > 100 µM | SW-620 > 100 µM | MCF7 > 100 µM | NCI-H522 > 100 µM | SNB-75 > 100 µM | RPMI-8226 > 100 µM | Hs-578T > 100 µM | OVCAR-4 > 100 µM | SR > 100 µM | NCI/ADR-RES > 100 µM | MDA-MB-435 > 100 µM | MOLT-4 > 100 µM | OVCAR-3 > 100 µM | SK-MEL-28 > 100 µM | HOP-92 3.59 µM | SF-539 > 100 µM | UACC-62 > 100 µM | PC-3 > 100 µM | CAKI-1 > 100 µM | ACHN > 100 µM | MDA-MB-231 > 100 µM | HT-29 > 100 µM | OVCAR-8 > 100 µM | SF-295 > 100 µM | T47D > 100 µM | SF-268 > 100 µM | NCI-H226 > 100 µM | SK-OV-3 > 100 µM | SK-MEL-2 > 100 µM | HOP-62 > 100 µM | OVCAR-5 > 100 µM | IGROV-1 > 100 µM | A498 > 100 µM
> 100 µM: HCT-15

NC1=C(N2CCOCC2)C(=O)NC2=N/C(=C\c3ccccc3O)C(=O)N21
51.1 µM: HCT-15
inactive: SN12C > 100 µM | MDA-N > 100 µM | KM12 > 100 µM | 786-0 > 100 µM | Malme-3M 84.3 µM | EKVX > 100 µM | CCRF-CEM > 100 µM | HCC 2998 95.7 µM | A549 > 100 µM | NCI-H23 > 100 µM | SNB-19 > 100 µM | K562 52.2 µM | HCT-116 > 100 µM | SK-MEL-5 73.6 µM | TK-10 > 100 µM | RXF 393 > 100 µM | UO-31 > 100 µM | COLO 205 > 100 µM | UACC-257 > 100 µM | M14 > 100 µM | U-251 > 100 µM | DU-145 > 100 µM | HL-60 41.6 µM | NCI-H460 89.3 µM | LOX IMVI > 100 µM | SW-620 > 100 µM | MCF7 > 100 µM | NCI-H522 76.2 µM | SNB-75 > 100 µM | RPMI-8226 20.5 µM | Hs-578T > 100 µM | OVCAR-4 13.5 µM | SR 35.6 µM | NCI/ADR-RES > 100 µM | MDA-MB-435 > 100 µM | MOLT-4 31.6 µM | SK-MEL-28 > 100 µM | HOP-92 51.8 µM | SF-539 > 100 µM | CAKI-1 > 100 µM | ACHN > 100 µM | MDA-MB-231 > 100 µM | HT-29 > 100 µM | OVCAR-8 > 100 µM | SF-295 > 100 µM | T47D 51.2 µM | SF-268 > 100 µM | NCI-H226 59.6 µM | SK-OV-3 > 100 µM | OVCAR-5 > 100 µM | IGROV-1 > 100 µM | A498 > 100 µM

CCCCCCCCCCCCCCCCP(=O)(O)OP(=O)(O)OCC1OC(n2ccc(N)nc2=O)C(O)C1O (stereo not given)
active: SR 0.323 µM
inactive: KM12 31.8 µM and 38.4 µM | EKVX > 100 µM | TK-10 29.4 µM and 41 µM | DU-145 25.8 µM | SNB-75 16.9 µM and 32.9 µM | OVCAR-3 60 µM | SK-MEL-28 32.4 µM and 47.5 µM | SF-539 14.3 µM and 22.9 µM | T47D > 90.2 µM | SK-MEL-2 > 100 µM and 76.7 µM | OVCAR-5 18.5 µM and 21.7 µM | A498 8.91 µM
